Assay results as given in patent publication US20030069271A1, “Quinolone compounds for use in treating viral infections” (priority 1999, published 2003).
Read-outs that look alike come from different tables or passages of the source.

Tested on: HIV
Assay: Anti-HIV activity in MT4 cells (method of Averett, J. Virol. Methods 1989)
Type: cell-based
Method: The compounds of the present invention were tested for anti-HIV activity in MT4 cells according to the method described by Averett, D. R., J. Virol.

[1] = Human immunodeficiency virus 1, read-out: Activity Range (IC50)

SMILES	IC50 [1] [µM]	IC50 (read-out: Activity Range (IC50)) [µM]
CCCc1c(OCC2CCCCC2)c2cc(Cl)ccc2[nH]c1=O [Example 5, 6-Chloro-4(cyclohexylmethoxy)-3-propyl-2(1H)-quinolinone]	0.5 to 2	
CC(C)c1c(OC2CCCCC2)c2cc(Cl)ccc2[nH]c1=O [Example 9, 6-Chloro-4-(cyclohexyloxy)-3-isopropyl-2(1H)-quinolinone]	0.005 to 0.1	
CCCc1c(OCC2OCCO2)c2cc(Cl)ccc2[nH]c1=O [Example 6, 6-Chloro-4-(1,3-dioxolan-2-ylmethoxy)-3-propyl-2(1H)-quinolinone]	0.5 to 2	
CCCc1c(OCC2CC2)c2cc(Cl)ccc2[nH]c1=O [Example 3, 6-Chloro-4-(cyclopropylmethoxy)-3-propyl-2(1H)-quinolinone]	0.1 to 0.5	
CCCc1c(OC2CCCCC2)c2cc(Cl)ccc2[nH]c1=O [Example 1, 6-Chloro-4-(cyclohexyloxy)-3-propyl-2(1H)-quinolinone]	0.005 to 0.1	
CCCc1c(OC2CCCC2)c2cc(C)ccc2[nH]c1=O [Example 10, 4-Cyclopentyloxy-6-methyl-3-propyl-2(1H)-quinolinone]	0.5 to 2	

Next, values leading:

IC50 [1] [µM]	IC50 (read-out: Activity Range (IC50)) [µM]	SMILES
0.005 to 0.1		CCc1c(OC#CC2CC2)c2cc(F)ccc2[nH]c1=O [Example 45, 4-[(2-Cyclopropylethynyl)oxy]-3-ethyl-6-fluoro-2(1H)-quinolinone]
0.005 to 0.1		CC(C)c1c(OC#CC2CC2)c2cc(F)ccc2[nH]c1=O [Example 36, 4-[(2-Cyclopropylethynyl)oxy]-6-fluoro-3-(isopropyl)-2(1H)-quinolinone]
	0.005 to 0.1	CC(C)Cc1c(OC#CC2CC2)c2cc(F)ccc2[nH]c1=O [Example 47, 4-[(2-Cyclopropylethynyl)oxy]-6-fluoro-3-isobutyl-2(1,H)-quinolinone]
0.1 to 0.5		CCCc1c([S+]([O-])C2CCCCC2)c2cc(Cl)ccc2[nH]c1=O (centres unmarked) [Example 24, 6-Chloro-4-(cyclohexylsulfinyl)-3-propyl-2(1H)-quinolinone]
0.005 to 0.1		CCCc1c(OC2CCCCC2)c2cc(Cl)ccc2[nH]c1=S [Example 20, 6-Chloro-4-(cyclohexyloxy)-3-propyl-2(1H)-quinolinethione]
0.005 to 0.1		CCCc1c(OC#CC2CC2)c2cc(F)ccc2[nH]c1=O [Example 37, 4-[(2-Cyclopropylethynyl)oxy]-6-fluoro-3-propyl-2(1H)-quinolinone]
0.005 to 0.1		CC(C)c1c(OC#CC2CC2)c2cc(Cl)ccc2[nH]c1=O [Example 46, 6-Chloro-4-[(2-Cyclopropylethynyl)oxy]-3-isopropyl-2(1H)-quinolinone]
0.005 to 0.1		CCCc1c(OC#CC2CC2)c2cc(Cl)ccc2[nH]c1=O [Example 35, 6-Chloro-4-[(2-cyclopropylethynyl)oxy]-3-propyl-2(1H)-quinolinone]
